Measurements published in US20100028467A1, “Composition Comprising Ginsenosides Isolated From The Extract Of Processed Ginseng For Preventing And Treating Thrombotic Disease” (Ginseng Science, Inc., priority 2008, published 2010).
Like-named read-outs stand apart in the source and are kept apart here.

Legend:
[1] = test system: AA-induced platelet aggregation; assay: Platelet aggregation inhibition test (aggregometer), AA-induced; format: cell-based, rat; conditions: for IC50: AA 30˜60×10^−6M with near-threshold collagen, rat adjusted PRP; for fold stronger activity than ASA on AA-induced aggregation: relative to ASA
Procedure: (§1) 7 weeks-year old Sprgue-Dawley male white rat (240±20 g, Orient Bio Co. Ltd) was anesthetized with diethyl ether. The blood of rat was collected from heart using a syringe containing 2.2% sodium citrate (10% v/v) and centrifuged for 10 mins with the speed of 200×g and the supernatant (upper layer) of buffy coat was collected using by serum separator (Mediland Co. Ltd, 10×250 mm) to afford platelet rich plasma containing supematant(PRP). The residue was centrifuged at 1500×g for 15 min to obtain the platelet poor plasma (PPP) and the PRP was diluted with PPP to adjust the final platelet number in PRP to 4.0-4.5×10^8/ml. Platelet number was counted using a platelet counter (Excell 18 MWI, DANAM Electronics, USA) disclosed in the literature (Lee Y. Y. et al., Anti-platelet Aggregating and anti-oxidative activities of 11-O-(4′-O-Methylgalloy)-bergenin, A new compound isolated from Crassul cv. “Himaturi”, Planta Med., 71, pp 776-777).
(§2) An aliquote (500 μl) of platelet count adjusted PRP was preincubated for 3 minutes at 37° C. in an aggregometer (490-X optical aggregometer, Chrono-Log Corp, USA) with constant stirring at 1,000 rpm. 5 μl of ginsenoside solution was added followed by successive addition of aggregation inducing agent (5 μl) at an intervals of 30 s to incubate for 30 sec with stirring at the speed of 1100 rpm. Arachidonic acid (AA, Sigma, A8798), Thromboxane A2 (U46619, Sigma, D8174) and collagen (Chrono-Log, No. 385) were used as aggregation inducing agents at the concentration of 30˜60×10^−6M (AA), 2˜4×10^−6M (U46619) and 2˜4×10^−6 g/ml (collagen) respectively. Aspirin was used as a positive control. […] The aggregation induced by AA and U46619 was determined in presence of a near-threshold concentration (1.0-1.4 μg/ml and 0.8-1.2 μg/ml, respectively) of collagen that can only induce change in platelet shape but no aggregation.
(§3) Inhibition (%) was calculated as follows: Inhibition (%)=(1−maximal aggregation of sample-treated aPRP/maximal aggregation of vehicle-treated aPRP)×100 All experiments were performed in tripticates. IC50 values were calculated from the linear regression of the plot of mean values (n=3) of percent inhibition versus concentration of corresponding ginsenoside. Sigma Plot software was used for graphing. Regression equations were calculated using Regression Wizard from the Sigma Plot equation library.

[2] = test system: U46619 (thromboxane A2 mimetic drug)-induced platelet aggregation; assay: Platelet aggregation inhibition test (aggregometer), U46619-induced; format: cell-based, rat; conditions: for IC50: U46619 2˜4×10^−6M with near-threshold collagen, rat adjusted PRP
Procedure: as §1, §2, §3

[3] = test system: collagen-induced platelet aggregation; assay: Platelet aggregation inhibition test (aggregometer), collagen-induced; format: cell-based, rat; conditions: for IC50: collagen 2˜4×10^−6 g/ml, rat adjusted PRP
Procedure: as §1, §2, §3

human plasma coagulation [4] = assay: Anti-coagulation test, aPTT (activated partial thromboplastin time); format: biochemical
Procedure: (§4) The inhibitory effect of the ginsenosides prepared in Examples on human plasma coagulation was determined by aPTT (activated partial thromboplastin time), PT(prothrombin time) and TT(thrombin time) tests.
(§5) Fresh freeze plasma was procured from the blood bank of Seoul National University Hospital (www.snuh.org) to use in the Anti-coagulation Test in human plasma.
(§6) To determine aPTT, 0.1 ml plasma treated with test samples was incubated at 37° C. for 2 mins and aPTT reagent (Diagnostica Stago, Cat. 0595) was added thereto to incubate for 3 mins. The coagulation time from the starting time of plasma coagulation with 0.1 ml of 20 mM calcium chloride solution to the ending time of plasma agglutination was determined using by fibrometer (BBL Fibrosystems, Fischer Scientific, USA).

human plasma coagulation [5] = assay: Anti-coagulation test, PT (prothrombin time); format: biochemical
Procedure: as §4, §5
as §6, with “PT and TT,” for “aPTT,”, “samples in the case of PT and 0.2 ml plasma treated with test samples in the case of TT” for “samples”, “respectively. 2 ml of PT” for “and aPTT”, “0605) and TT reagent (Diagnostica Stago, Cat. 0611) were” for “0595) was”

human plasma coagulation [6] = assay: Anti-coagulation test, TT (thrombin time); format: biochemical
Procedure: as §4, §5
as §6, with “PT and TT,” for “aPTT,”, “samples in the case of PT and 0.2 ml plasma treated with test samples in the case of TT” for “samples”, “respectively. 2 ml of PT” for “and aPTT”, “0605) and TT reagent (Diagnostica Stago, Cat. 0611) were” for “0595) was”

[7] = test system: rat platelet aggregation induced by ADP; assay: Modified smear method, ADP-induced platelet aggregation in PRP; format: cell-based; parameters: key: ++: full aggregation of platelet; +: intermediate aggregation of platelet; ±: slight aggregation of platelet; −: no aggregation of platelet; conditions: ADP 3.2 × 10^−6 M
Procedure: (§7) The inhibitory effect of the ginsenosides prepared in Examples on the rat platelet aggregation was determined according to the procedure disclosed in the literature (Yun-Choi et al., Modified smear method for screening potential inhibitors of platelet aggregation from plant sources, J. Nat. Prod., 48(3), pp 363-370, 1985).
(§8) The blood of 7 weeks-year old Sprgue-Dawley rat (male, 240±20 g, Orient Bio Co. Ltd) was collected using a syringe containing 2.2% sodium citrate (10% v/v) and centrifuged for 10 mins with the speed of 200× g to collect platelet rich plasma containing supernatant(PRP). 0.16 ml of PRP was treated with 0.2 ml of SG, SGbu-1, and SGBu-2 as test samples and 0.2 ml of solutions of arachidonic acid (Sigma, A8798), ADP (Sigma, A4386) and collagen (Chrono-Log, No. 385) as platelet aggregation inducers (control group) to incubate for 4 mins at 37° C.
(§9) Thin Smear prepared from step 1-1 was stained and the intensity of platelet aggregation result was observed by microscopy method. The intensity of platelet aggregation result was divided into […] categories, i.e., “++”: full aggregation of platelet; “+”: intermediate aggregation of platelet; “±”: slight aggregation of platelet; “−”: no aggregation of platelet.

[8] = test system: rat platelet aggregation induced by collagen; assay: Modified smear method, collagen-induced platelet aggregation in PRP; format: cell-based; parameters: key: ++: full aggregation of platelet; +: intermediate aggregation of platelet; ±: slight aggregation of platelet; −: no aggregation of platelet; conditions: collagen 2 × 10^−5 g/ml
Procedure: as §7, §8, §9

[9] = test system: rat platelet aggregation induced by arachidonic acid; assay: Modified smear method, arachidonic acid-induced platelet aggregation in PRP; format: cell-based; parameters: key: ++: full aggregation of platelet; +: intermediate aggregation of platelet; ±: slight aggregation of platelet; −: no aggregation of platelet; conditions: AA 4 × 10^−4 M
Procedure: as §7, §8, §9

Compound | inhibitory effect on AA-induced platelet aggregation (in words) [1] | IC50 [1] | IC50 [2] | IC50 [3] | aPTT (human plasma coagulation [4]) | PT (human plasma coagulation [5]) | TT (human plasma coagulation [6]) | inhibitory effect on U46619-induced platelet aggregation (in words) [2] | inhibitory effect on collagen-induced platelet aggregation (in words) [3] | fold stronger activity than ASA on AA-induced aggregation [1] | other results
CC(C)=CCC[C@](C)(O)[C@H]1CC[C@]2(C)[C@@H]1[C@H](O)C[C@@H]1[C@@]3(C)CC[C@H](O[C@@H]4O[C@H](CO)[C@@H](O)[C@H](O)[C@H]4O[C@@H]4O[C@H](CO)[C@@H](O)[C@H](O)[C@H]4O)C(C)(C)[C@@H]3CC[C@]12C [20(S)-ginsenosides Rg3, 20(S)-ginsenoside Rg3] | relatively strong inhibitory effect | 53 µM | > 700 µM | > 700 µM | 57.2 s | 23.5 s | 12.9 s |  |  |  | 
CC(C)=CCC[C@](C)(O)[C@H]1CC[C@]2(C)[C@@H]1[C@H](O)C[C@@H]1[C@@]3(C)CC[C@H](O[C@@H]4O[C@H](CO)[C@@H](O)[C@H](O)[C@H]4O[C@@H]4O[C@H](CO)[C@@H](O)[C@H](O)[C@H]4O)C(C)(C)[C@@H]3CC[C@]12C [20(R)-ginsenosides Rg3, 20(R)-ginsenoside Rg3] |  | > 100 µM | 357 µM | 492 µM | 50.3 s | 24.1 s | 13.6 s | inhibited | inhibited |  | inhibitory effect on AA-induced platelet aggregation (in words) ([1]; listed as 20(R)-Rg3): only poor platelet antiaggregating activity; inhibitory effect on collagen-induced platelet aggregation (in words) ([3]; listed as 20(R)-Rg3): comparable to that of ASA
CC(=O)Oc1ccccc1C(=O)O [Aspirin(ASP), Aspirin] |  |  |  |  |  |  |  |  |  |  | intensity of platelet aggregation, inducer ADP ([7]; 2.8 × 10^−3 M Aspirin): −; intensity of platelet aggregation, inducer ADP (value in brackets) ([7]; Aspirin (5.5 × 10^−3 M)): ±; intensity of platelet aggregation, inducer collagen ([8]; 1.4 × 10^−3 M Aspirin): −; intensity of platelet aggregation, inducer collagen (value in brackets) ([8]; Aspirin (2.8 × 10^−3 M)): ±; intensity of platelet aggregation, inducer AA ([9]; 0.7 × 10^−3 M Aspirin): −; intensity of platelet aggregation, inducer AA (value in brackets) ([9]; Aspirin (1.4 × 10^−3 M)): ±; IC50 ([1]; Platelet): 66 µM; IC50 ([2]; Platelet): 508 µM; IC50 ([3]; Platelet): 588 µM
C=C(CCC=C(C)C)[C@H]1CC[C@]2(C)[C@@H]1[C@H](O)C[C@@H]1[C@@]3(C)CC[C@H](O[C@@H]4O[C@H](CO)[C@@H](O)[C@H](O)[C@H]4O[C@@H]4O[C@H](CO)[C@@H](O)[C@H](O)[C@H]4O)C(C)(C)[C@@H]3CC[C@]12C [ginsenoside Rk1] | strongest inhibitory effect among four tested compounds | 3 µM | 78 µM | 197 µM | 54.5 s | 29.8 s | 14.3 s | strongest inhibitory effect among four tested compounds | strongest inhibitory effect among four tested compounds | 22 fold | fold higher activity than ASA on collagen-induced aggregation ([3]; relative to ASA): 3 fold
CC(C)=CCC[C@](C)(O)[C@H]1CC[C@]2(C)[C@@H]1[C@H](O)C[C@@H]1[C@@]3(C)CC[C@H](O[C@@H]4O[C@H](CO)[C@@H](O)[C@H](O)[C@H]4O[C@@H]4O[C@H](CO)[C@@H](O)[C@H](O)[C@H]4O)C(C)(C)[C@@H]3CC[C@]12C (racemic) [Racemic ginsenoside Rg3, ginsenoside Rg3] | exhibited inhibitory effect |  |  |  |  |  |  |  |  |  | 
CC(C)=CC/C=C(\C)[C@H]1CC[C@]2(C)[C@@H]1[C@H](O)C[C@@H]1[C@@]3(C)CC[C@H](O[C@@H]4O[C@H](CO)[C@@H](O)[C@H](O)[C@H]4O[C@@H]4O[C@H](CO)[C@@H](O)[C@H](O)[C@H]4O)C(C)(C)[C@@H]3CC[C@]12C [ginsenoside Rg5] |  | 8 µM | 102 µM | 409 µM | 66.0 s | 28.1 s | 14.1 s |  | comparable to that of ASA | 8 fold | 
